From patent US20100086483A1, “METHOD OF MULTIDETECTOR COMPUTED TOMAGRAPHY” (Gilead Palo Alto, Inc., priority 2008, published 2010)

What was measured:
normal subjects = test: Safety and tolerability of regadenoson with and without prior caffeine; assay type: in vivo, human; conditions: regadenoson 400 μg IV
Method: 15O water was used as the radionuclide in the PET scans. There was a 1- to 14-day washout period between dosing days. Blood samples and measures of safety were collected until 120 minutes after study drug administration.
Safety measures included adverse events (AEs), serious adverse events, vital signs (HR and BP), ECG, concomitant medications, and a tolerability questionnaire. All available data from subjects who received the single dose of regadenoson were to be included in the statistical summaries.
ECG intervals and changes from baseline values in ECG intervals were to be presented, as were occurrences of rhythm or conduction abnormalities. Concomitant medication usage was to be summarized.
Tolerability questionnaire responses were to be analyzed using the Wilcoxen rank sum test (“How did you feel?” question) and the exact Cochran-Mantel-Haenszel test (Day 2-only question “How did this test compare to the first test?”).

conscious dogs = test: Effects of caffeine on regadenoson-induced coronary vasodilation and changes in hemodynamics in conscious dogs (Part II); assay type: in vivo, dog; conditions: for change of maximum increase in CBF induced by regadenoson vs control: regadenoson 5 μg/kg IV, p>0.05
Method: Sixteen chronically instrumented male mongrel dogs weighing from 22-30 kg were used in the study. The animal protocol was approved by the Institutional Animal Care and Use Committee of New York Medical College and conforms to the Guide for the Care and Use of Laboratory Animal by the United States National Institutes of Health.
Dogs were sedated with acepromazine (0.3 mg/kg, IM) and anesthetized with pentobarbital sodium (25 mg/kg, IV). After intubation, dogs were artificially ventilated with room air. A thoracotomy was made in the fifth intercostal space using sterile techniques. A Tygon catheter (Cardiovascular Instruments, Wakefield, Mass.) was inserted into the descending thoracic aorta and another one was inserted into the left atrium. In 9 dogs, an ultrasound flow transducer (Transonic Systems, Ithaca, N.Y.) was placed around the left circumflex coronary artery. A solid-state pressure gauge (P6.5, Konisberg Instruments, Pasadena, Calif.) was placed into the left ventricle through the apex. The chest was closed in layers. The catheters and wires were tunneled subcutaneously and externalized through the skin at the back of the dog's neck. Dogs were allowed to recover from the surgery before experiments were performed, and were trained to lie on a table.
Phasic arterial pressure was measured by connecting the aortic catheter to a strain gauge transducer (P23 ID, LDS Test and Measurement, Valley View, Ohio). Left ventricular pressures were measured by the solid pressure gauge. CBF (mL/min) was measured from an ultrasound flow transducer using a Transonic flowmeter (T206, Transonic Systems, Ithaca, N.Y.). Two indices were used to describe the regadenoson-induced coronary vasodilation: 1) the maximum increase in CBF and 2) the duration of the 2-fold increase in CBF (the period of time that CBF was elevated to a level ≧2-fold of baseline CBF). All pressure and flow data were acquired and analyzed using a Ponemah System (Version 3.30 or 4.20, LDS Test and Measurement, Valley View, Ohio). MAP and HR were calculated from phasic blood pressure, and LV dP/dtMax was calculated from the left ventricular systolic pressure.
On the day of an experiment, a dog was placed on a table, where it lay quietly during the experiment. A catheter was inserted into a peripheral vein in the leg and attached to an infusion line to administer drugs without disturbing the dog. The experiment was begun after MAP, HR and CBF were stable.
Each dog received an IV injection of 5 μg/kg of regadenoson. […] LVSP, LV dP/dtMax, MAP, HR and CBF were recorded continuously. Blood samples were taken from the left atrial catheter at 1, 3, 5, 15, 30, 45 and 60 min following injections of regadenoson.
In 4 dogs, two doses of regadenoson (5 μg/kg, IV) were given 90 min apart (without blood sampling) to determine if there is tachyphylaxis of regadenoson-induced coronary vasodilation.
The statistical significance of a difference between the value of a parameter at baseline and at the indicated time point after drug administration was determined using a One-Way Repeated Measures ANOVA followed by Tukey's Test. […] Results with p<0.05 were considered to be significant. […] All data are presented as Mean±SEM.

[1] = caffeine 200 mg po vs placebo, p<0.001
[2] = regadenoson 5 μg/kg IV 45 min after caffeine 1 mg/kg IV, 1 min
[3] = regadenoson 5 μg/kg IV 45 min after caffeine 1 mg/kg IV, 2 min
[4] = regadenoson 5 μg/kg IV 45 min after caffeine 1 mg/kg IV, 3 min
[5] = regadenoson 5 μg/kg IV 45 min after caffeine 1 mg/kg IV, 20 min
[6] = regadenoson 5 μg/kg IV 45 min after caffeine 2 mg/kg IV, 1 min

Cn1c(=O)c2c(ncn2C)n(C)c1=O [Caffeine, caffeine]
tolerability questionnaire: comfort during the test with caffeine (normal subjects; [1]): felt more comfortable
tolerability questionnaire: feeling after the caffeine test vs the placebo test (normal subjects; [1]): felt better
effect of caffeine on severity of AEs (normal subjects; caffeine 200 mg po): attenuated
effect of caffeine on systolic or diastolic blood pressures in the presence of regadenoson (normal subjects; caffeine 200 mg po): no effect
overall incidence of AEs, placebo vs caffeine groups (normal subjects; caffeine 200 mg po): no difference
effect of caffeine on HR increase caused by regadenoson (normal subjects; caffeine 200 mg po, p<0.001): attenuated
regadenoson-induced headache severity with caffeine (normal subjects; caffeine 200 mg po, p=0.012): decreased
HR (conscious dogs; 45 min after caffeine 1 mg/kg IV, before regadenoson (baseline)): 74 ± 5 bpm
HR (conscious dogs; 45 min after caffeine 2 mg/kg IV, before regadenoson (baseline)): 75 ± 5 bpm
HR (conscious dogs; 45 min after caffeine 4 mg/kg IV, before regadenoson (baseline)): 81 ± 9 bpm
HR (conscious dogs; 45 min after caffeine 10 mg/kg IV, before regadenoson (baseline)): 78 ± 6 bpm
baseline CBF before vs after caffeine treatment (conscious dogs; 45 min after caffeine 1, 2, 4 and 10 mg/kg): not significantly different
change of maximum increase in CBF induced by regadenoson vs control (conscious dogs; caffeine 1 mg/kg IV): 2±3%
change of maximum increase in CBF induced by regadenoson vs control (conscious dogs; caffeine 2 mg/kg IV): −0.7±3%
change of maximum increase in CBF induced by regadenoson vs control (conscious dogs; caffeine 4 mg/kg IV): −16±5%
change of maximum increase in CBF induced by regadenoson vs control (conscious dogs; caffeine 10 mg/kg IV): −13±8%
effect on hemodynamics at 45 min following caffeine administration (conscious dogs; caffeine at 1, 2, 4 or 10 mg/kg): did not alter hemodynamics significantly
regadenoson-induced increase in LV dP/dtMax vs without caffeine (conscious dogs; in the presence of caffeine 1 mg/kg): slightly greater
regadenoson-induced increase in LV dP/dtMax vs without caffeine (conscious dogs; in the presence of caffeine 10 mg/kg): not altered
regadenoson-induced increase in LV dP/dtMax vs without caffeine (conscious dogs; in the presence of caffeine at 2 and 4 mg/kg): slightly smaller
HR (conscious dogs; regadenoson 5 μg/kg IV 45 min after caffeine 1 mg/kg IV, 0.5 min): 126 ± 7 bpm
HR (conscious dogs; [2]): 135 ± 9 bpm
MAP (conscious dogs; [2]): 100 ± 4 mm Hg
HR (conscious dogs; [3]): 131 ± 12 bpm
MAP (conscious dogs; [3]): 102 ± 4 mm Hg
HR (conscious dogs; [4]): 119 ± 9 bpm
MAP (conscious dogs; [4]): 101 ± 5 mm Hg
HR (conscious dogs; regadenoson 5 μg/kg IV 45 min after caffeine 1 mg/kg IV, 4 min): 110 ± 4 bpm
HR (conscious dogs; regadenoson 5 μg/kg IV 45 min after caffeine 1 mg/kg IV, 5 min): 106 ± 7 bpm
HR (conscious dogs; regadenoson 5 μg/kg IV 45 min after caffeine 1 mg/kg IV, 10 min): 89 ± 7 bpm
HR (conscious dogs; regadenoson 5 μg/kg IV 45 min after caffeine 1 mg/kg IV, 15 min): 87 ± 7 bpm
HR (conscious dogs; [5]): 81 ± 8 bpm
MAP (conscious dogs; [5]): 102 ± 4 mm Hg
HR (conscious dogs; regadenoson 5 μg/kg IV 45 min after caffeine 2 mg/kg IV, 0.5 min): 121 ± 10 bpm
HR (conscious dogs; [6]): 125 ± 10 bpm
MAP (conscious dogs; [6]): 102 ± 7 mm Hg
HR (conscious dogs; regadenoson 5 μg/kg IV 45 min after caffeine 2 mg/kg IV, 2 min): 122 ± 5 bpm
HR (conscious dogs; regadenoson 5 μg/kg IV 45 min after caffeine 2 mg/kg IV, 3 min): 110 ± 3 bpm
HR (conscious dogs; regadenoson 5 μg/kg IV 45 min after caffeine 2 mg/kg IV, 4 min): 106 ± 4 bpm
HR (conscious dogs; regadenoson 5 μg/kg IV 45 min after caffeine 2 mg/kg IV, 5 min): 97 ± 3 bpm
HR (conscious dogs; regadenoson 5 μg/kg IV 45 min after caffeine 2 mg/kg IV, 10 min): 84 ± 5 bpm
HR (conscious dogs; regadenoson 5 μg/kg IV 45 min after caffeine 2 mg/kg IV, 15 min): 85 ± 6 bpm
HR (conscious dogs; regadenoson 5 μg/kg IV 45 min after caffeine 2 mg/kg IV, 20 min): 84 ± 5 bpm
HR (conscious dogs; regadenoson 5 μg/kg IV 45 min after caffeine 4 mg/kg IV, 0.5 min): 126 ± 12 bpm
HR (conscious dogs; regadenoson 5 μg/kg IV 45 min after caffeine 4 mg/kg IV, 1 min): 114 ± 11 bpm
HR (conscious dogs; regadenoson 5 μg/kg IV 45 min after caffeine 4 mg/kg IV, 2 min): 106 ± 12 bpm
HR (conscious dogs; regadenoson 5 μg/kg IV 45 min after caffeine 4 mg/kg IV, 3 min): 102 ± 7 bpm
HR (conscious dogs; regadenoson 5 μg/kg IV 45 min after caffeine 4 mg/kg IV, 4 min): 94 ± 8 bpm
HR (conscious dogs; regadenoson 5 μg/kg IV 45 min after caffeine 4 mg/kg IV, 5 min): 94 ± 7 bpm
HR (conscious dogs; regadenoson 5 μg/kg IV 45 min after caffeine 4 mg/kg IV, 10 min): 85 ± 8 bpm
HR (conscious dogs; regadenoson 5 μg/kg IV 45 min after caffeine 4 mg/kg IV, 15 min): 85 ± 8 bpm
HR (conscious dogs; regadenoson 5 μg/kg IV 45 min after caffeine 4 mg/kg IV, 20 min): 87 ± 7 bpm
HR (conscious dogs; regadenoson 5 μg/kg IV 45 min after caffeine 10 mg/kg IV, 0.5 min): 115 ± 12 bpm
HR (conscious dogs; regadenoson 5 μg/kg IV 45 min after caffeine 10 mg/kg IV, 1 min): 102 ± 6 bpm
HR (conscious dogs; regadenoson 5 μg/kg IV 45 min after caffeine 10 mg/kg IV, 2 min): 106 ± 11 bpm
HR (conscious dogs; regadenoson 5 μg/kg IV 45 min after caffeine 10 mg/kg IV, 3 min): 96 ± 7 bpm
HR (conscious dogs; regadenoson 5 μg/kg IV 45 min after caffeine 10 mg/kg IV, 4 min): 94 ± 8 bpm
HR (conscious dogs; regadenoson 5 μg/kg IV 45 min after caffeine 10 mg/kg IV, 5 min): 93 ± 5 bpm
HR (conscious dogs; regadenoson 5 μg/kg IV 45 min after caffeine 10 mg/kg IV, 10 min): 88 ± 7 bpm
HR (conscious dogs; regadenoson 5 μg/kg IV 45 min after caffeine 10 mg/kg IV, 15 min): 88 ± 6 bpm
HR (conscious dogs; regadenoson 5 μg/kg IV 45 min after caffeine 10 mg/kg IV, 20 min): 86 ± 4 bpm
